Reference: patent US20040038888A1 (priority 2002, published 2004)
Ends that are not written are not given here.

Experiments:
[1] = system: mouse adult neural stem cells; test: Intracellular ATP assay, adult mouse NSC, non-adherent culture; assay type: cell-based; conditions: for effect of inhibitor on the PACAP increase of intracellular ATP: co-incubated with PACAP 100 nM, 4 days, 10 uM H89, 1 uM U73122, 1 uM Gö6976
Procedure: The anterior lateral wall of the lateral ventricle of 5-6 week old mice was enzymatically dissociated in 0.8 mg/ml hyaluronidase and 0.5 mg/ml trypsin in DMEM containing 4.5 mg/ml glucose and 80 units/ml DNase at 37° C. for 20 min. The cells were gently triturated and mixed with three volumes of Neurosphere medium (DMEM/F12, B27 supplement, 12.5 mM HEPES pH7.4) containing 20 ng/ml EGF (unless otherwise stated), 100 units/ml penicillin and 100μg/ml streptomycin. After passing through a 70 μm strainer, the cells were pelleted at 160×g for 5 min. The supernatant was subsequently removed and the cells resuspended in Neurosphere medium supplemented as above, plated out in culture dishes and incubated at 37° C. Neurospheres were ready to be split approximately 7 days after plating.
To split neurosphere cultures, neurospheres were collected by centrifugation at 160×g for 5 min. The neurospheres were resuspended in 0.5 ml Trypsin/EDTA in HBSS (1×), incubated at 37° C. for 2 min and triturated gently to aid dissociation. Following a further 3 min incubation at 37° C. and trituration, 3 volumes of ice cold NSPH-media-EGF were added to stop further trypsin activity. The cells were pelleted at 220×g for 4 min, resuspended in fresh Neurosphere medium supplemented with 20 ng/ml EGF and 1 nM bFGF plated out and incubated at 37° C.
Mouse neurospheres, cultured as described above, from passage 2, were seeded in DMEM/F12 supplemented with B27 into a 96-well plate as single cells (10000 cells/well) to the substances to be measured were added at the concentrations indicated. After 3 days incubation, intracellular ATP was measured using the ATP-SL kit from BioThema, Sweden, according to the manufacturer's instructions. PACAP and VIP were purchased from Bachem. Maxadilan was a kind gift from Richard G Titus, Dept Microbiology, Immunology and Pathology, College of Veterinary Medicine and Biological Sciences, Colorado State University.
In experiments where signalling pathways were examined, cells were seeded as single cells as mentioned above. PACAP, 100 nM, was co incubated with 10 uM PKA inhibitor H89 (Alexis-Biochemicals) or 1 uM PLC inhibitor U73122 (Alexis-Biochemicals) or 1 uM of the PKC inhibitor Gö6976 (Sigma-Aldrich). Cells were incubated for 4 days before measurements of ATP.
In the experiment analysing the combinatory effect of PACAP and EGF, PACAP at 100 nM was co-incubated with 3 nM EGF for 3 days.

AP-1 = AP-1 transcription factor reporter assay; assay type: cell-based, mouse; conditions: PD89059 10 μM with PACAP 100 nM
Procedure: Vectors: Vector DNA containing reporter elements for AP-1 and empty cloning vector (pTAL), with a luciferace reporter were purchased from Promega. The vectors were propagated in E. coli strain JM-109 (Promega) and purified with Qiagens maxi-prep Kit (Qiagen). The concentration was diluted to approximately 1 mg/ml per vector.
Transfection: Transient transfection was performed by seeding cells as above in suspension neurosphere cell culture and adherent neurosphere cell culture (1 to 3 day incubation) using 30,000 single cells/well. Each well was transiently transfected with […] plasmid, 0.6 μg Nupherin-neuron (Biomol) and 0,6 μl of Fugene-6 (Roche). Plasmid and Nupherin was mixed and diluted in DMEM/F12 to a total volume of 50 μl/well, and were incubated for 15 minutes prior to mixing with Fugene-6 that were diluted in DMEM/F12 to a total volume of 50 μl/well. The mix of plasmid and Nupherin and Fugene-6 were incubated for 20 min. The volume was adjusted to 100 μl prior to addition of 100 μl/well of transfection reagent.
Assay: The following day the transiently transfected cells were applied with PACAP (Bachem) to final concentration of 100 nM/well, in the presence or absence of MEK inhibitor, […] (Sigma-Aldrich). Luciferace activity was analysed with steady glow (Promega) according to the instructions of the manufacturer. Cells were analysed 20 hours after induction with PACAP.

NSC from LVW = test: Culture of NSC for cell counting; assay type: cell-based, mouse; conditions: PACAP 100 nM, VEGF 1 nM, in place of EGF, 7 days; VEGF relative to PACAP treated NSC
Procedure: Anterior lateral ventricle wall was dissected and the cells treated as stated above, however, in place of EGF, the medium was supplemented either with PACAP (100 nM), VEGF (1 nM) or a combination of both at the stated concentrations. The cell suspension was plated into wells of a 24 well plate. The medium was further supplemented with PACAP and/or VEGF every 2 days. After 7 days in culture, the NSC washed in phosphate buffered saline and dissociated with trypsin/EDTA. Cells numbers per well were counted using a Bürker chamber. VEGF was purchased from R&D Systems.

## COc1ccc2c(c1)CC[C@@H]1[C@@H]2CC[C@]2(C)[C@@H](NCCCCCCN3C(=O)C=CC3=O)CC[C@@H]12 [U73122, reference compound]
[1]
  effect of inhibitor on the PACAP increase of intracellular ATP: entirely negate the effect of PACAP

## COc1cccc(-c2cc(=O)c3ccccc3o2)c1N [PD89059, reference compound]
AP-1
  effect of MEK inhibitor on the PACAP induction of AP-1: inhibited

## Vasoactive intestinal peptide (HSDAVFTDNYTRLRKQMAVKKYLNSILN; ends and bridges not checked; UniProt P01282 125-152, looked up) [VIP, 28-amino acid peptide]
[1]; VIP at 1 μM, non-adherent conditions, 3 days, relative to control
  intracellular ATP, and hence cell number: statistically significant increase in intracellular ATP

## Cn1c2ccccc2c2c3c(c4c5ccccc5n(CCC#N)c4c21)CNC3=O [Gö6976, reference compound]
[1]
  effect of inhibitor on the PACAP increase of intracellular ATP: entirely negate the effect of PACAP

## O=S(=O)(NCCNC/C=C/c1ccc(Br)cc1)c1cccc2cnccc12 [H89, reference compound]
[1]
  effect of inhibitor on the PACAP increase of intracellular ATP: unaltered

## vascular endothelial growth factor [VEGF]
NSC from LVW
  cell number: significant increase in cell number

## EGF: mitogen, growth factor for cell cultures from BD Biosciences
[1]; PACAP 100 nM, EGF 3 nM, alone or combined, 3 days
  intracellular ATP levels, and hence NSC number: increased intracellular ATP levels
